Assay results reported in ChEMBL document CHEMBL3588771, “Discovery of 5-Amino-N-(1H-pyrazol-4-yl)pyrazolo[1,5-a]pyrimidine-3-carboxamide Inhibitors of IRAK4” (ACS Med Chem Lett, 2015).

Key:
in vitro [1] = conditions: dog, MDCK
in vivo [2] = conditions: rat, po, 1 mg/kg
in vivo [3] = conditions: rat, plasma, iv, 0.5 mg/kg
in vitro [4] = conditions: pig, LLC-PK1

Row | Papp (in vitro [1]) [×10⁻⁶ cm/s] | bioavailability (in vivo [2]) [%] | clearance (in vivo [3]) [mL/min/kg] | Papp (in vitro [4]) [×10⁻⁶ cm/s] | Compound
1 | < 2 | – | – | – | Cn1cc(NC(=O)c2cnn3ccc(N[C@H]4CCCC[C@H]4N)nc23)c(C(N)=O)n1
2 | – | 0 | 56 | 2 | Cn1cc(NC(=O)c2cnn3ccc(N[C@@H]4CCCC[C@@H]4N)nc23)c(C(N)=O)n1
3 | 17 | – | – | – | Cn1cc(NC(=O)c2cnn3ccc(N[C@@H]4CCCC[C@@H]4N)nc23)c(C#N)n1
4 | 16 | 5 | 98 | – | Cn1cc(NC(=O)c2cnn3ccc(N[C@@H]4CCCC[C@@H]4N)nc23)c(C(F)(F)F)n1
5 | 13 | – | – | – | Cn1cc(NC(=O)c2cnn3ccc(N[C@@H]4CCCC[C@@H]4N)nc23)c(C(F)F)n1

Row | Compound | Papp (in vitro [1]) [×10⁻⁶ cm/s] | bioavailability (in vivo [2]) [%] | clearance (in vivo [3]) [mL/min/kg] | Papp (in vitro [4]) [×10⁻⁶ cm/s]
6 | Cn1cc(NC(=O)c2cnn3ccc(N[C@@H]4CCCC(F)(F)[C@@H]4N)nc23)c(C(F)F)n1 | 29 | 46 | 29 | –
7 | Cn1cc(NC(=O)c2cnn3ccc(N[C@@H]4CCC(F)(F)C[C@@H]4N)nc23)c(C(F)(F)F)n1 | 26 | – | – | –
8 | Cn1cc(NC(=O)c2cnn3ccc(N4CC[C@H](F)[C@@H](N)C4)nc23)c(C(F)(F)F)n1 | 28 | – | – | –
